How the values were obtained:
[1] = target: Dual specificity tyrosine-phosphorylation-regulated kinase 2 (Homo sapiens) (UniProt Q92630); assay: activity of DYRK2(h) at 1.0 µM in the Eurofins Kinase panel; details: Compound concentration 1.0 uM
[2] = target: Tyrosine-protein kinase Mer (Homo sapiens) (UniProt Q12866); assay: activity of Mer(h) at 1.0 µM in the Eurofins Kinase panel; details: Compound concentration 1.0 uM
[3] = target: Protein kinase C iota type (Homo sapiens) (UniProt P41743); assay: activity of PKCiota(h) at 1.0 µM in the Eurofins Kinase panel; details: Compound concentration 1.0 uM
[4] = target: Insulin-like growth factor 1 receptor (Homo sapiens) (UniProt P08069); assay: activity of IGF-1R(h) at 1.0 µM in the Eurofins Kinase panel; details: Compound concentration 1.0 uM
[5] = target: SRSF protein kinase 3 (Homo sapiens) (UniProt Q9UPE1); assay: activity of MSSK1(h) at 1.0 µM in the Eurofins Kinase panel; details: Compound concentration 1.0 uM
[6] = target: Serine/threonine-protein kinase Nek1 (Homo sapiens) (UniProt Q96PY6); assay: activity of NEK1(h) at 1.0 µM in the Eurofins Kinase panel; details: Compound concentration 1.0 uM
[7] = target: CDK12/Cyclin K (Homo sapiens) (UniProt O75909+Q9NYV4); assay: activity of CDK12/cyclinK(h) at 1.0 µM in the Eurofins Kinase panel; assay type: protein-complex assay; details: Compound concentration 1.0 uM
[8] = target: Fibroblast growth factor receptor 3 (Homo sapiens) (UniProt P22607); assay: activity of FGFR3(h) at 1.0 µM in the Eurofins Kinase panel; details: Compound concentration 1.0 uM
[9] = target: Cyclin-dependent kinase 5/CDK5 activator 1 (Homo sapiens) (UniProt Q00535+Q15078); assay: activity of CDK5/p35(h) at 1.0 µM in the Eurofins Kinase panel; assay type: protein-complex assay; details: Compound concentration 1.0 uM
[10] = target: Mitogen-activated protein kinase kinase kinase kinase 1 (Homo sapiens) (UniProt Q92918); assay: activity of HPK1(h) at 1.0 µM in the Eurofins Kinase panel; details: Compound concentration 1.0 uM
Sequence of Mitogen-activated protein kinase kinase kinase kinase 1 (Homo sapiens) (Q92918 whole entry, looked up, the tested form may be a part): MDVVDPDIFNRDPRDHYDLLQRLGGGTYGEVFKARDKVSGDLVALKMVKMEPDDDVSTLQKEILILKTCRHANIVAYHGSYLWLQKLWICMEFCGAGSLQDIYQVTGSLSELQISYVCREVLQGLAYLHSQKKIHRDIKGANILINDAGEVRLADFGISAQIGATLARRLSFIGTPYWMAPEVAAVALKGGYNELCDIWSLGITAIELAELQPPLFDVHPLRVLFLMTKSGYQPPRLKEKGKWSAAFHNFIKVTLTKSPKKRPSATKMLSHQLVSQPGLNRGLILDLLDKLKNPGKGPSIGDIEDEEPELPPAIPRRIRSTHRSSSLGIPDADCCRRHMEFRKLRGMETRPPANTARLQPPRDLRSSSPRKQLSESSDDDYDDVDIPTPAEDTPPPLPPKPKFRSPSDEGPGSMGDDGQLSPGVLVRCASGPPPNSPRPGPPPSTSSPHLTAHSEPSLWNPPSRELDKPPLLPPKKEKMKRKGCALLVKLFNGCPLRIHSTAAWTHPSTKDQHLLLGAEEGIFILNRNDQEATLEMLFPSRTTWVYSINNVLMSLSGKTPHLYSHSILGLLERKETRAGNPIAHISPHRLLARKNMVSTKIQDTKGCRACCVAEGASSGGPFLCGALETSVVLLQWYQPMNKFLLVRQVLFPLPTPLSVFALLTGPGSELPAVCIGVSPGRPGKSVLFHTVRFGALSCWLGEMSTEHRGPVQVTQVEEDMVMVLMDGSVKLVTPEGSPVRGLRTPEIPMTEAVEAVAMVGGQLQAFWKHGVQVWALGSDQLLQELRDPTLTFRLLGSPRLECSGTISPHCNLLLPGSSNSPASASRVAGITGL

[11] = target: LIM domain kinase 2 (Homo sapiens) (UniProt P53671); assay: activity of LIMK2(h) at 1.0 µM in the Eurofins Kinase panel; details: Compound concentration 1.0 uM
[12] = target: Serine/threonine-protein kinase Chk1 (Homo sapiens) (UniProt O14757); assay: activity of CHK1(h) at 1.0 µM in the Eurofins Kinase panel; details: Compound concentration 1.0 uM
[13] = target: Serine/threonine-protein kinase Sgk2 (Homo sapiens) (UniProt Q9HBY8); assay: activity of SGK2(h) at 1.0 µM in the Eurofins Kinase panel; details: Compound concentration 1.0 uM
[14] = target: Bone morphogenetic protein receptor type-2 (Homo sapiens) (UniProt Q13873); assay: activity of BMPR2(h) at 1.0 µM in the Eurofins Kinase panel; details: Compound concentration 1.0 uM
[15] = target: Serine/threonine-protein kinase DCLK3 (Homo sapiens) (UniProt Q9C098); assay: activity of DCAMKL3(h) at 1.0 µM in the Eurofins Kinase panel; details: Compound concentration 1.0 uM
[16] = target: Ribosomal protein S6 kinase alpha-6 (Homo sapiens) (UniProt Q9UK32); assay: activity of Rsk4(h) at 1.0 µM in the Eurofins Kinase panel; details: Compound concentration 1.0 uM
[17] = target: Ephrin type-A receptor 5 (Homo sapiens) (UniProt P54756); assay: activity of EphA5(h) at 1.0 µM in the Eurofins Kinase panel; details: Compound concentration 1.0 uM
Sequence of Ephrin type-A receptor 5 (Homo sapiens) (P54756 whole entry): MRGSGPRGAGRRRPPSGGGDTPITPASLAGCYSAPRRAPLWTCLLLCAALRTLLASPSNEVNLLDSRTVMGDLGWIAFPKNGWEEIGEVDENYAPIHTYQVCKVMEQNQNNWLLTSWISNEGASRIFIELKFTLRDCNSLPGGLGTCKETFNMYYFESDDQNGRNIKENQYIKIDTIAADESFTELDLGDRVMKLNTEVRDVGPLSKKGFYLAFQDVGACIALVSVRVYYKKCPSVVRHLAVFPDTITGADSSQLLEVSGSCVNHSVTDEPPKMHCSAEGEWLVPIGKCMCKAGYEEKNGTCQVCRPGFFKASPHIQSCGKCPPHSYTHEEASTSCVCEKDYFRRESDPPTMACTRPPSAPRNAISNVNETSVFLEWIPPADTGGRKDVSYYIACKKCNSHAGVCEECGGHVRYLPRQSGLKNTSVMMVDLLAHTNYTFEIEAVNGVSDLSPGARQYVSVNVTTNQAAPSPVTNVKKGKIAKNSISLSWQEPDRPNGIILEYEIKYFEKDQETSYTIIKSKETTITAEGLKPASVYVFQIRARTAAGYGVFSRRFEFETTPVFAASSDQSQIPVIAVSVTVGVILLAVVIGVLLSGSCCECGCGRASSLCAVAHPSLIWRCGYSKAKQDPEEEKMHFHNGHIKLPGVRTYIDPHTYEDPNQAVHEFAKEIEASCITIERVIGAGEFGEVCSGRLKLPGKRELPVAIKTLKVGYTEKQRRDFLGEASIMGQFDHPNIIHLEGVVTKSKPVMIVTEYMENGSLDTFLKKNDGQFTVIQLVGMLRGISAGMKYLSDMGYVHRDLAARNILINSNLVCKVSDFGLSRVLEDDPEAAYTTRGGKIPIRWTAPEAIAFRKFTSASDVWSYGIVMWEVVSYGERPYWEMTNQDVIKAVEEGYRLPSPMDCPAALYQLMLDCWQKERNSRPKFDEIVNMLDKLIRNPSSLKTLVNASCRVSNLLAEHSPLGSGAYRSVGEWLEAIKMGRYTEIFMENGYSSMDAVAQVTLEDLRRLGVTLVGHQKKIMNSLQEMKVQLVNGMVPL

[18] = target: Serine/threonine-protein kinase 38 (Homo sapiens) (UniProt Q15208); assay: activity of NDR1(h) at 1.0 µM in the Eurofins Kinase panel; details: Compound concentration 1.0 uM
[19] = target: Serine/threonine-protein kinase TBK1 (Homo sapiens) (UniProt Q9UHD2); assay: activity of TBK1(h) at 1.0 µM in the Eurofins Kinase panel; details: Compound concentration 1.0 uM
[20] = target: BMP-2-inducible protein kinase (Homo sapiens, UniProt Q9NSY1); assay: Promega NanoBRET (BMP2K)
[21] = target: Serine/threonine-protein kinase Nek2 (Homo sapiens) (UniProt P51955); assay: activity of NEK2(h) at 1.0 µM in the Eurofins Kinase panel; details: Compound concentration 1.0 uM
[22] = target: Serine/threonine-protein kinase ULK3 (Homo sapiens) (UniProt Q6PHR2); assay: activity of ULK3(h) at 1.0 µM in the Eurofins Kinase panel; details: Compound concentration 1.0 uM
[23] = target: MAP kinase-interacting serine/threonine-protein kinase 2 (Homo sapiens, UniProt Q9HBH9); assay: Promega NanoBRET (MKNK2)
[24] = target: Serine/threonine-protein kinase 25 (Homo sapiens) (UniProt O00506); assay: activity of STK25(h) at 1.0 µM in the Eurofins Kinase panel; details: Compound concentration 1.0 uM
[25] = target: AP2-associated protein kinase 1 (Homo sapiens, UniProt Q2M2I8); assay: Promega NanoBRET (AAK1)
[26] = target: Calcium/calmodulin-dependent protein kinase type 1D (Homo sapiens) (UniProt Q8IU85); assay: activity of CaMKIdelta(h) at 1.0 µM in the Eurofins Kinase panel; details: Compound concentration 1.0 uM
[27] = target: Mitogen-activated protein kinase 14 (Homo sapiens) (UniProt Q16539); assay: activity of SAPK2a(h) at 1.0 µM in the Eurofins Kinase panel; details: Compound concentration 1.0 uM
[28] = target: Mast/stem cell growth factor receptor Kit (Homo sapiens) (UniProt P10721); assay: activity of cKit(h) at 1.0 µM in the Eurofins Kinase panel; details: Compound concentration 1.0 uM
[29] = target: Ephrin type-A receptor 1 (Homo sapiens) (UniProt P21709); assay: activity of EphA1(h) at 1.0 µM in the Eurofins Kinase panel; details: Compound concentration 1.0 uM
[30] = target: Serine/threonine-protein kinase WNK3 (Homo sapiens) (UniProt Q9BYP7); assay: activity of WNK3(h) at 1.0 µM in the Eurofins Kinase panel; details: Compound concentration 1.0 uM
Sequence of Serine/threonine-protein kinase WNK3 (Homo sapiens) (Q9BYP7 whole entry): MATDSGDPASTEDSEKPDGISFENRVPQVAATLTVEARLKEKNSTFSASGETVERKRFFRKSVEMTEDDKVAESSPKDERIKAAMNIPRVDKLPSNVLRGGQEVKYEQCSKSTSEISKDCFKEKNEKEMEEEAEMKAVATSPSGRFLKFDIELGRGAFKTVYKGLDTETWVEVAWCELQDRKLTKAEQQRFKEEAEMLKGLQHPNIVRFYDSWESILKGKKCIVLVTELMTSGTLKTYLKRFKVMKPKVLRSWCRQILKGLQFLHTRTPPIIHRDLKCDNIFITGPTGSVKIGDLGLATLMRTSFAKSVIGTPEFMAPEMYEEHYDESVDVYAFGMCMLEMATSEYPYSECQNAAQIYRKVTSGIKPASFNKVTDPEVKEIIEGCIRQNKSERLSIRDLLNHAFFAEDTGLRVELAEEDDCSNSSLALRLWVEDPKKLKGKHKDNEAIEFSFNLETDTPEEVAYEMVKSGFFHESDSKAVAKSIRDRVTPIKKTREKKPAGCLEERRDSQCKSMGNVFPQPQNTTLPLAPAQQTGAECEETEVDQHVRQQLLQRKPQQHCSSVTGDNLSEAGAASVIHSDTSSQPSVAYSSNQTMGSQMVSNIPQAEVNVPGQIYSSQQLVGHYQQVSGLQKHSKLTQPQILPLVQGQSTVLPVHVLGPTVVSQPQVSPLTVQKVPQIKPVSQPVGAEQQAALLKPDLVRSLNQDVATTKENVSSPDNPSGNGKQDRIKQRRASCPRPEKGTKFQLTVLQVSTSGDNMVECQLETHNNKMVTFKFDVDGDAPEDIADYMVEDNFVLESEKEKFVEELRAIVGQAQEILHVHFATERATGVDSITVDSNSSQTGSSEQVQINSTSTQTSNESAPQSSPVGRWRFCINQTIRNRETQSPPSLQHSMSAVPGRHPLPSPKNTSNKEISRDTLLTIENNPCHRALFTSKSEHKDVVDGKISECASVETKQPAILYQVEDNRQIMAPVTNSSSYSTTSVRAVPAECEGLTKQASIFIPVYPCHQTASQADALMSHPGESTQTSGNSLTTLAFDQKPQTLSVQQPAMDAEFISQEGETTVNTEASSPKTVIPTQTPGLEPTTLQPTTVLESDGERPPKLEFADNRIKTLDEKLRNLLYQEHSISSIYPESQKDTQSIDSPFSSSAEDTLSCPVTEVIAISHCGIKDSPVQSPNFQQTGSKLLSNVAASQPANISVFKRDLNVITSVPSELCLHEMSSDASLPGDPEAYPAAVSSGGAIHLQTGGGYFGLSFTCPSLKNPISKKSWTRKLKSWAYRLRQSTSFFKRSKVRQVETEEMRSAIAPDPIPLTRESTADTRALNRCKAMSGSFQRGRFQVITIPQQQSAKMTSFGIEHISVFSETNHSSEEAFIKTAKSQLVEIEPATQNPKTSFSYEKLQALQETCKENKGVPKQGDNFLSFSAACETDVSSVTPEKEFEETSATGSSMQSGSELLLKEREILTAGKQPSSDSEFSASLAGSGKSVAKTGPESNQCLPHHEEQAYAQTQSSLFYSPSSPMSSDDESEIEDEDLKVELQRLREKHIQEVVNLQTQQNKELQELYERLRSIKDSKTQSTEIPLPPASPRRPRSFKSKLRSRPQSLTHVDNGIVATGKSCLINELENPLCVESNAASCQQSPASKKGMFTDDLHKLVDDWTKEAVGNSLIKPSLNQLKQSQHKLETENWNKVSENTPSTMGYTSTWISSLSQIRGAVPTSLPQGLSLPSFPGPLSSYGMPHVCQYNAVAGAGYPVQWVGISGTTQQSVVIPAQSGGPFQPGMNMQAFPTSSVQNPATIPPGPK

[31] = target: Tyrosine-protein kinase Srms (Homo sapiens) (UniProt Q9H3Y6); assay: activity of SRMS(h) at 1.0 µM in the Eurofins Kinase panel; details: Compound concentration 1.0 uM
Sequence of Tyrosine-protein kinase Srms (Homo sapiens) (Q9H3Y6 whole entry): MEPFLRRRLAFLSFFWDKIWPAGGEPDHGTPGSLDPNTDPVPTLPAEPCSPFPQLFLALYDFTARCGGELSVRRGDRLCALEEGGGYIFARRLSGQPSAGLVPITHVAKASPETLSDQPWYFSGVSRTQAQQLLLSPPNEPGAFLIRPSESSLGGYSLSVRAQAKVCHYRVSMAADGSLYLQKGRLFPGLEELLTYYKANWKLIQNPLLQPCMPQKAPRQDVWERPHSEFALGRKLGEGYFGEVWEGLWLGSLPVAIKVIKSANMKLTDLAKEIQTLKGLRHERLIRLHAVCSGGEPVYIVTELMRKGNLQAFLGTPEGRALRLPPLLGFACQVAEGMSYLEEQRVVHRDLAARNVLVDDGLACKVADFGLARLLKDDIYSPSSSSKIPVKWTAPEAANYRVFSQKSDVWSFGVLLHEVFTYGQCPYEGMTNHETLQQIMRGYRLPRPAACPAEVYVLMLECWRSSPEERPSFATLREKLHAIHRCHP

[32] = target: Serine/threonine-protein kinase haspin (Homo sapiens) (UniProt Q8TF76); assay: activity of Haspin(h) at 1.0 µM in the Eurofins Kinase panel; details: Compound concentration 1.0 uM
[33] = target: Serine/threonine-protein kinase PLK2 (Homo sapiens) (UniProt Q9NYY3); assay: activity of Snk(h) at 1.0 µM in the Eurofins Kinase panel; details: Compound concentration 1.0 uM
Sequence of Serine/threonine-protein kinase PLK2 (Homo sapiens) (Q9NYY3 whole entry, looked up): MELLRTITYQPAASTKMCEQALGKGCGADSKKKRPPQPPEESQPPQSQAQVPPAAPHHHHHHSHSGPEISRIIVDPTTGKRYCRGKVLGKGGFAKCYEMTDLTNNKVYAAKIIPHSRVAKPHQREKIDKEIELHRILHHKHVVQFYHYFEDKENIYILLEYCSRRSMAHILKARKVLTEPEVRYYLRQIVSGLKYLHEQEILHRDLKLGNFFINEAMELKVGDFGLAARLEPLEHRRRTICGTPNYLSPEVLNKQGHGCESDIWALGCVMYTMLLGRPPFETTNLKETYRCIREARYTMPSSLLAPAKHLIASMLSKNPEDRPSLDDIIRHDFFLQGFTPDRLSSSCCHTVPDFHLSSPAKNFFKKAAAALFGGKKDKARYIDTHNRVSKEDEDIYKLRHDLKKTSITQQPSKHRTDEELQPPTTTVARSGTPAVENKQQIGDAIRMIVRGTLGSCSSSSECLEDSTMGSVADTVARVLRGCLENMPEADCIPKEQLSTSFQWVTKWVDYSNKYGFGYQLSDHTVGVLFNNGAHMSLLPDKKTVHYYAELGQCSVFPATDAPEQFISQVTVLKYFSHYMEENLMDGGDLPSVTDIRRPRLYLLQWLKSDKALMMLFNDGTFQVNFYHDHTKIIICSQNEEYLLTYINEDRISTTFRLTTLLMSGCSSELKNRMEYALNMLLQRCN

[34] = target: Eukaryotic translation initiation factor 2-alpha kinase 1 (Homo sapiens) (UniProt Q9BQI3); assay: activity of HRI(h) at 1.0 µM in the Eurofins Kinase panel; details: Compound concentration 1.0 uM
[35] = target: Casein kinase I isoform alpha (Homo sapiens) (UniProt P48729); assay: activity of CK1alpha(h) at 1.0 µM in the Eurofins Kinase panel; details: Compound concentration 1.0 uM
[36] = target: Tyrosine-protein kinase Tec (Homo sapiens) (UniProt P42680); assay: activity of Tec(h) activated at 1.0 µM in the Eurofins Kinase panel; details: Compound concentration 1.0 uM
[37] = target: Calcium/calmodulin-dependent protein kinase type II subunit alpha (Homo sapiens) (UniProt Q9UQM7); assay: activity of CaMKIIalpha(h) at 1.0 µM in the Eurofins Kinase panel; details: Compound concentration 1.0 uM
[38] = target: Dual specificity protein kinase CLK4 (Homo sapiens) (UniProt Q9HAZ1); assay: activity of CLK4(h) at 1.0 µM in the Eurofins Kinase panel; details: Compound concentration 1.0 uM
ATR/ATRIP (Homo sapiens) = ATR/ATRIP (Homo sapiens) (UniProt Q13535+Q8WXE1); assay: activity of ATR/ATRIP(h) at 1.0 µM in the Eurofins Kinase panel; assay type: protein-complex assay; details: Compound concentration 1.0 uM
[39] = target: Ribosomal protein S6 kinase alpha-3 (Homo sapiens) (UniProt P51812); assay: activity of Rsk2(h) at 1.0 µM in the Eurofins Kinase panel; details: Compound concentration 1.0 uM

activity [1]: 101%
activity [2]: 105%
activity [3]: 110%
activity [4]: 98%
activity [5]: 134%
activity [6]: 94%
activity [7]: 89%
activity [8]: 86%
activity [9]: 79%
activity [10]: 73%
activity [11]: 72%
activity [12]: 108%
activity [13]: 82%
activity [14]: 85%
activity [15]: 86%
activity [16]: 101%
activity [17]: 89%
activity [18]: 100%
activity [19]: 100%
IC50 [20]: > 10 µM (not active)
activity [21]: 118%
activity [22]: 95%
IC50 [23]: 5.5 µM (not active)
activity [24]: 92%
IC50 [25]: 6.2 µM (not active)
activity [26]: 89%
activity [27]: 94%
activity [28]: 85%
activity [29]: 92%
activity [30]: 85%
activity [31]: 86%
activity [32]: 140%
activity [33]: 94%
activity [34]: 80%
activity [35]: 97%
activity [36]: 126%
activity [37]: 88%
activity [38]: 85%
activity (ATR/ATRIP (Homo sapiens)): 110%
activity [39]: 88%
SMILES: Cc1cc2c(-c3ccc(NC(=O)[C@H](N)CC(C)(C)C)cc3C)ccnc2[nH]1
